“And” between values parts separate entries of the source, which are not always exact repeats. Equal values may be shown once.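 Results reflect a 48-hour exposure of cells in 96-well plates to compound at five concentrations. At the GI50, growth is halved. TGI: concentration producing complete growth inhibition.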
Columns and labels:
Assay in all cases: NCI tumour cell line growth inhibition, 48 h
T-47D breast = test system: T-47D breast
SN12C renal = test system: SN12C renal
MDA-MB-435 = test system: MDA-MB-435
OVCAR-8 ovarian = test system: OVCAR-8 ovarian
COLO 205 colon = test system: COLO 205 colon
CCRF-CEM leukemia = test system: CCRF-CEM leukemia
SNB-19 CNS = test system: SNB-19 CNS
NCI-H23 lung = test system: NCI-H23 lung
SK-MEL-5 melanoma = test system: SK-MEL-5 melanoma
ACHN renal = test system: ACHN renal

| SMILES | GI50 (T-47D breast) | TGI (T-47D breast) | GI50 (SN12C renal) | TGI (SN12C renal) | GI50 (MDA-MB-435) | TGI (MDA-MB-435) | GI50 (OVCAR-8 ovarian) | TGI (OVCAR-8 ovarian) | GI50 (COLO 205 colon) | TGI (COLO 205 colon) | GI50 (CCRF-CEM leukemia) | TGI (CCRF-CEM leukemia) [µM] | GI50 (SNB-19 CNS) | TGI (SNB-19 CNS) | GI50 (NCI-H23 lung) | TGI (NCI-H23 lung) | GI50 (SK-MEL-5 melanoma) | TGI (SK-MEL-5 melanoma) | GI50 (ACHN renal) | TGI (ACHN renal) |
| --- | --- | --- | --- | --- | --- | --- | --- | --- | --- | --- | --- | --- | --- | --- | --- | --- | --- | --- | --- | --- |
| COC(=O)[C@H](Cc1ccccc1)NC(=O)c1csc([C@@H](C[C@H](C(C)C)N(C)C(=O)[C@@H](NC(=O)[C@H]2CCCN2C)C2CC2)OC(C)=O)n1 | > 7.36 µM | > 33.3 µM | 0.548 µM | > 33.3 µM | 0.027 µM | 0.191 µM | 0.602 µM | > 33.3 µM | 0.456 µM | 4.29 µM | 0.166 µM | > 33.3 | 0.943 µM | > 33.3 µM | 1.46 µM | > 33.3 µM | 671 nM | 8.99 µM | 1.44 µM | > 33.3 µM |
| CCc1cccc(CC)c1/C=C/c1cncc(C(=O)NC)c1 | 11.9 µM | > 25 µM | 10.8 µM | > 25 µM | 2.85 µM | 10.5 µM | 15.4 µM | > 25 µM | 13.8 µM | > 25 µM | 0.765 µM | > 25 | 19.7 µM | > 25 µM | 15.2 µM | > 25 µM | 5710 nM | > 16.2 µM | 22.1 µM | > 25 µM |
| Nc1ncnc2c1c(-c1ccc(Oc3ccccc3)cc1)nn2C[C@@H]1SSC[C@@H]1O | 0.305 µM | 2.27 µM | 0.762 µM | 11 µM | 0.101 µM | 0.256 µM | 0.36 µM | 12.2 µM | 1.58 µM | 4.7 µM | 0.061 µM | > 59.7 | 1.03 µM | 14 µM | 0.333 µM | 7.93 µM | 250 nM | 0.684 µM | 0.398 µM | 7.01 µM |
| O=C(Nc1ccccc1O)c1ccc(CNC(=O)c2ccsc2Nc2ccnc(C(F)(F)F)c2)cc1 | 2.71 µM | > 100 µM | 4.13 µM | 79.3 µM | 2.19 µM | 6.54 µM | 1.57 µM | 19.1 µM | 3.4 µM | 13.4 µM | 0.32 µM | > 100 | 2.97 µM | 13.2 µM | 1.72 µM | 4.88 µM | 1690 nM | 4.07 µM | 2.6 µM | 10.3 µM |
| COc1cc2cc(Oc3ccc(NC(=O)c4cccc5c4OCCO5)cc3)c(C)nc2cc1OC | 2.82 µM | 15.4 µM | 8.4 µM | > 100 µM | 7.05 µM | > 100 µM | 3.68 µM | 29.8 µM | 4.95 µM | > 100 µM | 4.18 µM | > 100 | 15.5 µM | > 100 µM | 8.14 µM | > 100 µM | 2920 nM | > 100 µM | 4.01 µM | 27.3 µM |
| COc1ccc(-c2cc(/C=C/C(=O)c3cc(OC)c(OC)c(OC)c3)[nH]n2)cc1OC | 1.01 µM | 3.76 µM | 1.77 µM | 3.83 µM | 1.78 µM | 4.05 µM | 2.56 µM | 11.7 µM | 1.75 µM | 3.57 µM | 0.342 µM | 3.13 | 1.8 µM | 5.32 µM | 1.97 µM | 4.91 µM | 1580 nM | 2.93 µM | 1.45 µM | 2.82 µM |
| CC1(C)C2CCC13C(=O)C1OC3(C2)C2C(=O)c3c(O)cccc3C(=O)C12 (stereo not given) | 0.906 µM | 6.58 µM | 0.711 µM | 1.84 µM | 0.818 µM | 2.5 µM | 0.821 µM | 2.68 µM | 4.09 µM | 16.1 µM | 0.212 µM | 1.14 | 10.6 µM | 23.9 µM | 2.24 µM | 6.55 µM | 460 nM | 1.64 µM | 1.56 µM | 2.98 µM |
| CN(C)C/C=C/C(=O)Nc1ccc(C(=O)N2CCC[C@@H](Nc3ncc(Cl)c(-c4c[nH]c5ccccc45)n3)C2)cc1 | 0.0427 µM | 4.27 µM | 0.21 µM | 9.29 µM | 0.0832 µM | 1.23 µM | 0.406 µM | 11.8 µM | 0.0338 µM | 0.122 µM | 0.0438 µM | 15.8 | 0.196 µM | 11.1 µM | 0.189 µM | 0.783 µM | 231 nM | 0.618 µM | 3.41 µM | 12.7 µM |
| COc1ccccc1/C=C\C(=O)c1ccccc1 | 5.44 µM | 20 µM | 9.36 µM | 22.1 µM | 4.27 µM | 16.5 µM | 4.21 µM | 15 µM | 11.9 µM | 24.3 µM | 3.28 µM | > 100 | 4.38 µM | 16.7 µM | 13.5 µM | 29.4 µM | 5010 nM | 17 µM | 5.4 µM | 17.5 µM |
| O=C(Cc1ccc(/C=C/C(=O)c2ncc[nH]2)cc1)Nc1ccc(C(F)(F)F)cc1 | 3.97 µM | 12.3 µM | 1.87 µM | 8.02 µM | 2.87 µM | 11.6 µM | 7.99 µM | > 33.3 µM | 5.38 µM | 11.8 µM | 1.55 µM | > 33.3 | 2.79 µM | 7.75 µM | 3.42 µM | 9.26 µM | 5550 nM | 10.2 µM | 6.33 µM | 17.8 µM |
| NC(=O)C(=O)n1ncc(Cl)c(Cl)c1=O |  | > 100 µM |  | 40.8 µM |  | > 100 µM |  | 65.9 µM |  | > 51.1 µM |  | 26.1 |  | > 100 µM |  | 52.9 µM |  | 39.4 µM |  | 55.7 µM |
| C[C@@H]1C/C=C\C(=O)O[C@H](/C=C/C#C/C=C/C(C)(C)[C@@H](O)c2cccc(O)c2Br)[C@@H](C)/C=C/[C@H](C)C[C@H](OC(N)=O)C1 | 0.0354 µM | 22.9 µM | 0.0542 µM | 14 µM | 0.0332 µM | 12.1 µM | 0.0512 µM | 23.2 µM | 0.0435 µM | 21.4 µM | 0.0419 µM | 33 | 1.66 µM | 19.1 µM | 0.319 µM | 21.6 µM | 17.9 nM | 0.0354 µM | 0.0405 µM | 14.5 µM |
| CN(C)CCCN1c2ccccc2Sc2ccc(Cl)cc21 | 5.92 µM and 8.6 µM | 20 µM and 23.4 µM | 3.85 µM and 4.87 µM | 14.8 µM and 17.7 µM | 1.94 µM and 2.21 µM | 4.04 µM and 6.09 µM | 4.07 µM and 9.24 µM | 15.5 µM and 22.8 µM | 1.89 µM and 2.85 µM | 3.77 µM and 7.68 µM | 7.38 µM | 24.3 | 7.01 µM and 11.9 µM | 20.9 µM and 25 µM | 8.92 µM and 13.3 µM | 22.2 µM and 27.6 µM | 1710 nM and 1770 nM | 3.11 µM and 3.35 µM | 4.06 µM and 5.71 µM | 14.8 µM and 18.3 µM |
| NC(N)=N/N=C/c1c(-c2ccc(Cl)c([N+](=O)[O-])c2)nc2n1CCS2 | 21.6 µM | 50.2 µM | 2.29 µM | 9.04 µM | 9.63 µM | 22.2 µM | 8.89 µM | > 100 µM | 15.1 µM | 39.8 µM | 2.6 µM | 9.93 | 4.67 µM | > 100 µM | 14.3 µM | 27.3 µM | 15000 nM | 36.7 µM | 15.7 µM | 37.2 µM |
| CC(C)(C)[Si](C)(C)OCC1OC(n2cnc3c(N)ncnc32)C(O)C1O (stereo not given) |  | > 100 µM |  | > 100 µM |  | > 100 µM |  | > 100 µM |  | > 100 µM |  | > 100 |  | > 100 µM |  | > 100 µM |  | 89.5 µM |  | > 100 µM |
| O=c1[nH]c2cc(Cl)c(Cl)cc2n2cc3ccccc3c12 | 30.8 µM | 75.5 µM | 15.7 µM | 29.4 µM | 16.9 µM | 30.5 µM | 18.4 µM | 32.4 µM | 29.6 µM | > 100 µM | 22.1 µM | 48.9 | 21.6 µM | 56.6 µM | 17.2 µM | 30.9 µM | 19900 nM | 41.7 µM | 15.5 µM | 28.9 µM |
| COc1ccc2[nH]c(-c3ccccc3)cc2c1 | 19.3 µM | > 100 µM | > 100 µM | > 100 µM | > 100 µM | > 100 µM | > 100 µM | > 100 µM | > 100 µM | > 100 µM | 68.5 µM | > 100 | > 100 µM | > 100 µM | 97.9 µM | > 100 µM | 86600 nM | > 100 µM | > 100 µM | > 100 µM |
| CC[C@H](C)[C@H](NC(=O)[C@H]1CCCCN1C)C(=O)N(C)[C@H](C[C@@H](OC(C)=O)c1nc(C(=O)N[C@@H](Cc2ccccc2)C[C@H](C)C(=O)OC)cs1)C(C)C | 11.8 µM | > 25 µM | 0.00076 µM and 0.0025 µM | > 25 µM | < 0.0025 µM | < 0.0025 µM | 0.000473 µM and 0.0025 µM | > 25 µM | 0.000208 µM and < 0.0025 µM | 0.00119 µM and < 0.0025 µM | 0.000552 µM and 0.0025 µM | 2.5 | 0.000431 µM and 0.0025 µM | > 25 µM | 0.00071 µM and 0.0025 µM | > 25 µM | 0.0909 nM and < 2.5 nM | 0.00455 µM and < 0.0025 µM | 0.000773 µM and 0.0025 µM | > 25 µM |
| CC[C@@]1(O)C(=O)OCc2c1cc1n(c2=O)Cc2cc3c(N)cccc3nc2-1 | 0.00662 µM |  | 0.00812 µM | > 23.3 µM |  | 2.16 µM | 0.0403 µM | 2.51 µM |  | 6.22 µM | 0.00158 µM |  |  | 6.05 µM | 0.00525 µM | 0.0511 µM and 0.162 µM | 21.4 nM | 0.0806 µM | 0.00448 µM | 0.0501 µM |
| COc1ccc2c(c1)nc1n2C(c2ccc(F)cc2)SC1 (stereo not given) | 14.4 µM | 51 µM | 32.2 µM | > 100 µM | 21.8 µM | 59.5 µM | 17.2 µM | 43.2 µM | 16 µM | 37.4 µM | 25.9 µM | > 100 | 36.5 µM | > 100 µM | 18.9 µM | > 100 µM | 15400 nM | 28.7 µM | 20.8 µM | 47.3 µM |
| Cn1cc(CO)c2ccccc21 | 62.1 µM | > 100 µM | 50.9 µM | > 100 µM | 3.45 µM | 21 µM | > 100 µM | > 100 µM | 30.3 µM | > 100 µM | > 100 µM | > 100 | > 100 µM | > 100 µM | 48.2 µM | > 100 µM | 48600 nM | > 100 µM | > 100 µM | > 100 µM |

Reference: PubChem BioAssay (NCI)
